Experimental data taken from ChEMBL document CHEMBL1146486, “Biologically active compounds from Aphyllophorales (polypore) fungi” (J Nat Prod, 2004).
In brackets after ≈: the same amount, converted by molar mass.

Tests used:
[1] = target: Transient receptor potential cation channel subfamily V member 1 (Homo sapiens, UniProt Q8NER1); test: Inhibition of Vanilloid receptor 1
[2] = Inhibition of lipid peroxidation; format: functional
[3] = Inhibition of pig brain phospholipase; design: species or system Sus scrofa
Bacillus cereus = test: Antimicrobial activity against Bacillus cereus; format: functional
Leuconostoc = test: Antimicrobial activity against Leuconostoc plantarum; format: functional
Micrococcus = test: Antimicrobial activity against Micrococcus flavus; format: functional
Bacillus anthracis = test: Antimicrobial activity against Bacillus anthracis; format: functional
Staphylococcus aureus = test: Antimicrobial activity against Staphylococcus aureus; format: functional
[4] = Inhibition of almond beta-glucosidase; design: species or system Prunus dulcis
[5] = Cytotoxicity against human KATO III cells; format: functional, cell-based, KATO III cell
Aspergillus niger = test: Antimicrobial activity against Aspergillus niger; format: functional
Amylomyces rouxii = test: Antimicrobial activity against Mucor rouxii; format: functional
L929 = test: Cytotoxicity against mouse L929 cells; format: cell-based
Aspergillus flavus = test: Antimicrobial activity against Aspergillus flavus; format: functional
[6] = Cytotoxicity against human FL cells; format: functional, cell-based
MDCK = test: Cytotoxicity against MDCK cells; format: cell-based; conditions: Canis lupus familiaris
HeLa = test: Cytotoxicity against human HeLa cells; format: functional, cell-based
Protease = Protease (Human immunodeficiency virus 1, UniProt Q9YQ12); test: Inhibition of HIV1 protease
Sequence of Protease (Q9YQ12 whole entry): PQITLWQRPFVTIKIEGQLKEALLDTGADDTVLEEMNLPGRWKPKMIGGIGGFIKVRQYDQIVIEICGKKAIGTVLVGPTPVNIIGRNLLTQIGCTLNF

T47D = test: Cytotoxicity against human T47D cells; format: functional; conditions: read-out: ED50 (the source's name)
[7] = Cytotoxicity against mouse LLC cells; format: functional; conditions: Lewis lung carcinoma, read-out: ED50 (the source's name)
CCRF S-180 = test: Cytotoxicity against mouse S180 cells; format: functional; conditions: read-out: ED50 (the source's name)
[8] = Cytotoxicity against mouse Meth-A cells; format: functional; conditions: read-out: ED50 (the source's name)
Micrococcus luteus = test: Antimicrobial activity against Sarcina lutea; format: functional
Bacillus subtilis = test: Antimicrobial activity against Bacillus subtilis; format: functional
Kocuria rosea = test: Antimicrobial activity against Micrococcus roseus; format: functional
Arthrobacter citreus = test: Antimicrobial activity against Arthrobacter citreus; format: functional
[9] = tested on: Clavibacter michiganensis subsp. insidiosus; test: Antimicrobial activity against Corynebacterium insidiosum; format: functional
[10] = Inhibition of DNA synthesis in human ECA cells assessed as blockade of thymidine incorporation; format: functional, cell-based
[11] = Toxicity in mouse at 225 mg/kg; format: organism-based; design: dose 225 mg/kg; conditions: in vivo
Alternaria = test: Antimicrobial activity against Alternaria; format: functional
[12] = Inhibition of NF-kappaB by secreted alkaline phosphatase based reporter gene assay
[13] = Antiplatelet activity assessed as inhibition of ADP-stimulated bovine platelet aggregation; format: functional; conditions: Bos taurus
[14] = Antiplatelet activity assessed as inhibition of ADP-stimulated human platelet aggregation; format: functional
L1210 = test: Cytotoxicity against mouse L1210 cells; format: functional, cell-based
HL-60 = test: Cytotoxicity against human HL60 cells
Liver microsomes = test: Antioxidant activity in rat liver microsomes assessed as inhibition of lipid peroxidation; format: functional, Microsome

Sequence of Transient receptor potential cation channel subfamily V member 1 (Q8NER1 whole entry): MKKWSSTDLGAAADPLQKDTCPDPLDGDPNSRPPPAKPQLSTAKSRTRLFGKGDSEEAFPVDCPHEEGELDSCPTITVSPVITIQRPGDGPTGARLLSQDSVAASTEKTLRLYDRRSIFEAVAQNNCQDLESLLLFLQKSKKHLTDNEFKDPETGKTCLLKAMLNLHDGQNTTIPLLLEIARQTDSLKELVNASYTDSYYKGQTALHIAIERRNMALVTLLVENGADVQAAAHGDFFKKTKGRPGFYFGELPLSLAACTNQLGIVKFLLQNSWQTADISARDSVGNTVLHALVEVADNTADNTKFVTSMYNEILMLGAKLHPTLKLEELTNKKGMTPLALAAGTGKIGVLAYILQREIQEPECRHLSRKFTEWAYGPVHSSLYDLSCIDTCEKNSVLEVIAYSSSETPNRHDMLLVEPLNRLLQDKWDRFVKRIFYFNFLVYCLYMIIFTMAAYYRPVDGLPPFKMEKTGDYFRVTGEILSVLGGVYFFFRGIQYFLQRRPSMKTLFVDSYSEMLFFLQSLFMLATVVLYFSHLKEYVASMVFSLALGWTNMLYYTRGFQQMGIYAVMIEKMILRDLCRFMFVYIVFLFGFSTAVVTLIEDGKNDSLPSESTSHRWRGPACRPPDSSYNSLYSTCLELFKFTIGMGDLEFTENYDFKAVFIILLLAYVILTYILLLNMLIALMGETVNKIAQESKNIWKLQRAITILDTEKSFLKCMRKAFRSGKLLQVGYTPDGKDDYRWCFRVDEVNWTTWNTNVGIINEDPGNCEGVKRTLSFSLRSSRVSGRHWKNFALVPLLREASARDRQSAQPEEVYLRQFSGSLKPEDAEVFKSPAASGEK

Cc1cc(O)c(C[C@@H]2[C@@]3(C)CCCC(C)(C)[C@@H]3CC[C@@]2(C)O)c(O)c1 [ALBACONOL]
IC50 [1]: 5 µM

COC1=C(c2ccccc2)C(=O)C(OC)=C(c2ccccc2)C1=O [BETULINAN A]
IC50 [2]: 0.46 µg/mL (≈ 1.44 µM)

COC1=C(c2ccccc2)C(=O)C2=C(C1=O)c1ccccc1CO2 [BETULINAN B]
IC50 [2]: 2.88 µg/mL (≈ 9.05 µM)

CC(=O)O[C@@H]1[C@H](O[C@H](CO)[C@H](O)[C@@H](O)[C@@H](OC(C)=O)C(=O)O[C@H](C)CCCCCCCCCCCCCCCc2cccc(O)c2C(=O)O)O[C@H](CO)[C@@H](O)[C@@H]1O [CALOPOROSIDE]
Ki [3]: 10 µg/mL (≈ 12.2 µM)

Nc1c(C(=O)O)c2nc3c(CO)cccc3oc-2cc1=O [CINNABARIN]
MIC (Bacillus cereus): 62.5 µg/mL (≈ 218 µM)
MIC (Leuconostoc): 62.5 µg/mL (≈ 218 µM)

CC1(C)C[C@H]2[C@@H]([C@H]1O)[C@@]1(C)[C@@]3(O[C@@H]3C(=O)[C@@]13CO3)[C@H]2O [CORIOLIN]
MIC (Micrococcus): 12.5 µg/mL (≈ 44.6 µM)
MIC (Bacillus anthracis): 12.5 µg/mL (≈ 44.6 µM)
MIC (Staphylococcus aureus): 12.5 µg/mL (≈ 44.6 µM)

OC[C@@H]1[C@@H](O)[C@H](O)[C@@H](O)[C@@H]2O[C@H]12 [CYCLOPHELLITOL]
IC50 [4]: 0.8 µg/mL (≈ 4.54 µM)

OCCCc1ccc2oc(-c3ccc4c(c3)OCO4)cc2c1 [DEMETHOXYEGONOL]
IC50 [5]: 27.5 µg/mL (≈ 92.8 µM)

C=C1C(=O)[C@H]2O[C@]23C[C@H]2CC(C)(C)C[C@H]2[C@]13C [DESOXYHYPNOPHILIN]
MIC (Bacillus cereus): 1 µg/mL (≈ 4.3 µM)
MIC (Aspergillus niger): 1 µg/mL (≈ 4.3 µM)
MIC (Amylomyces rouxii): 1 µg/mL (≈ 4.3 µM)
IC50 (L929): 2.4 µg/mL (≈ 10.3 µM)
MIC (Aspergillus flavus): 1 µg/mL (≈ 4.3 µM)

COc1cc(CCCO[C@@H]2O[C@H](CO)[C@@H](O)[C@H](O)[C@H]2O)cc2cc(-c3ccc4c(c3)OCO4)oc12 [EGONOL GLUCOSIDE]
IC50 [5]: 24.9 µg/mL (≈ 51 µM)

COc1cc(CCCO)cc2cc(-c3ccc4c(c3)OCO4)oc12 [EGONOL]
IC50 [5]: 28.8 µg/mL (≈ 88.2 µM)

O=Cc1ccc(O)c(O)c1C=O [FOMECIN B]
IC50 [6]: 17 µg/mL (≈ 102 µM)
IC50 (MDCK): 14 µg/mL (≈ 84.3 µM)
IC50 (HeLa): 20 µg/mL (≈ 120 µM)

C/C(=C\CC[C@@H](C)[C@H]1CC(=O)[C@@]2(C)C3=C(C(=O)C[C@]12C)[C@@]1(C)CC[C@H](O)C(C)(C)[C@@H]1C[C@@H]3O)C(=O)O [GANODERIC ACID BETA]
IC50 (Protease): 20 µM

C=C1[C@@H](O)[C@H]2O[C@]23C[C@H]2CC(C)(C)[C@H](O)[C@H]2[C@]13C [HYPNOPHILIN 1]
IC50 (L929): 0.9 µg/mL (≈ 3.6 µM)

C=C1C(=O)[C@H]2O[C@]23C[C@H]2CC(C)(C)[C@H](O)[C@H]2[C@]13C [HYPNOPHILIN]
MIC (Bacillus cereus): 1 µg/mL (≈ 4.03 µM)
MIC (Aspergillus niger): 1 µg/mL (≈ 4.03 µM)
MIC (Amylomyces rouxii): 1 µg/mL (≈ 4.03 µM)
MIC (Aspergillus flavus): 1 µg/mL (≈ 4.03 µM)

C=C(CC[C@@H](C)[C@H]1CC[C@@]2(C)C3=C(CC[C@]12C)[C@@]1(C)CC[C@H](O)C(C)(C)C1CC3=O)C(C)C=O (stereo partly specified) [LUCIALDEHYDE C]
EC50 (T47D): 4.7 µg/mL (≈ 10 µM)
EC50 [7]: 10.7 µg/mL (≈ 22.8 µM)
EC50 (CCRF S-180): 7.1 µg/mL (≈ 15.1 µM)
EC50 [8]: 3.8 µg/mL (≈ 8.11 µM)

CCCCCCCC/C=C\CCCCCCCc1cc(O)cc(O)c1C(=O)O [MERULINIC ACID A]
MIC (Micrococcus luteus): 0.4 µg/mL (≈ 1.02 µM)
MIC (Bacillus subtilis): 0.4 µg/mL (≈ 1.02 µM)
MIC (Kocuria rosea): 0.4 µg/mL (≈ 1.02 µM)
MIC (Arthrobacter citreus): 0.4 µg/mL (≈ 1.02 µM)
MIC [9]: 0.4 µg/mL (≈ 1.02 µM)

CC(O)CCCCCC/C=C\CCCCCCCc1cccc(O)c1C(=O)O (stereo unspecified) [MERULINIC ACID B]
MIC (Micrococcus luteus): 0.4 µg/mL (≈ 1.02 µM)
MIC (Bacillus subtilis): 0.4 µg/mL (≈ 1.02 µM)
MIC (Kocuria rosea): 0.4 µg/mL (≈ 1.02 µM)
MIC (Arthrobacter citreus): 0.4 µg/mL (≈ 1.02 µM)
MIC [9]: 0.4 µg/mL (≈ 1.02 µM)

CCCCCCCC/C=C\CCCCCCCc1cccc(O)c1C(=O)O [MERULINIC ACID C]
MIC (Micrococcus luteus): 0.4 µg/mL (≈ 1.07 µM)
MIC (Bacillus subtilis): 0.4 µg/mL (≈ 1.07 µM)
MIC (Kocuria rosea): 0.4 µg/mL (≈ 1.07 µM)
MIC (Arthrobacter citreus): 0.4 µg/mL (≈ 1.07 µM)
MIC [9]: 0.4 µg/mL (≈ 1.07 µM)

C=C1C(=O)[C@H](OC(C)=O)/C=C(\C)C(=O)[C@H](O)[C@@H]2[C@@H]1CC2(C)C [NAEMATOLON]
IC50 [10]: 2 µg/mL (≈ 6.53 µM)
LD50 [11]: 225 mg/kg

Cc1oc(=O)c2c(O)cccc2c1C [OOSPOLACTONE]
MIC (Alternaria): 12.5 µg/mL (≈ 65.7 µM)

CC(C)=C[C@H](O)C1=C[C@@H](O)[C@@H]2O[C@@H]2C1=O [PANEPOXYDONE]
IC50 [12]: 1.5 µg/mL (≈ 7.14 µM)

CC1(C)CCC(=O)[C@@H]2[C@@H](C=O)C(C=O)=CC[C@@H]21 [PANUDIAL]
IC30 [13]: 2.5 µg/mL (≈ 10.7 µM)
IC30 [14]: 6 µg/mL (≈ 25.6 µM)

CC(C)C(C)C[C@@H](O)[C@](C)(O)[C@H]1CC[C@@]2(O)C3=CC(=O)[C@@H]4C[C@@H](O)[C@@H](O)C[C@]4(C)[C@H]3CC[C@]12C (stereo partly specified) [POLYPORUSTERONE A]
IC50 (L1210): 10 µg/mL (≈ 20.9 µM)

C=C(C[C@@H](O)[C@](C)(O)[C@H]1CC[C@@]2(O)C3=CC(=O)[C@@H]4C[C@@H](O)[C@@H](O)C[C@]4(C)[C@H]3CC[C@]12C)C(C)C [POLYPORUSTERONE B]
IC50 (L1210): 10 µg/mL (≈ 21 µM)

CC(C)C(C)C1O[C@H]1[C@](C)(O)[C@H]1CC[C@@]2(O)C3=CC(=O)[C@@H]4C[C@@H](O)[C@@H](O)C[C@]4(C)[C@H]3CC[C@]12C (stereo partly specified) [POLYPORUSTERONE C]
IC50 (L1210): 10 µg/mL (≈ 21 µM)

C=C([C@H](O)C[C@H](C)C(C)C)[C@H]1CC[C@@]2(O)C3=CC(=O)[C@@H]4C[C@@H](O)[C@@H](O)C[C@]4(C)[C@H]3CC[C@]12C [POLYPORUSTERONE D]
IC50 (L1210): 10 µg/mL (≈ 21.7 µM)

CC(C)[C@@H](C)[C@@H]1O[C@H]1[C@@H](C)[C@H]1CC[C@@]2(O)C3=CC(=O)[C@@H]4C[C@@H](O)[C@@H](O)C[C@]4(C)[C@H]3CC[C@]12C [POLYPORUSTERONE E]
IC50 (L1210): 10 µg/mL (≈ 21.7 µM)

CC(C)[C@@H](C)C[C@@H](O)[C@@H](C)[C@H]1CC[C@@]2(O)C3=CC(=O)[C@@H]4C[C@@H](O)[C@@H](O)C[C@]4(C)[C@H]3CC[C@]12C [POLYPORUSTERONE F]
IC50 (L1210): 10 µg/mL (≈ 21.6 µM)

C=C(C[C@@H](O)[C@@H](C)[C@H]1CC[C@@]2(O)C3=CC(=O)[C@@H]4C[C@@H](O)[C@@H](O)C[C@]4(C)[C@H]3CC[C@]12C)C(C)C [POLYPORUSTERONE G]
IC50 (L1210): 10 µg/mL (≈ 21.7 µM)

C=C(C)[C@@H]1CCC2=C(CC[C@]3(C)[C@@H]([C@@H](CCC=C(C)C)C(=O)O)[C@H](O)C[C@@]23C)[C@@]1(C)CCC(=O)O [PORICOIC ACID G]
GI50 (HL-60): 0.0393 µM

CC1(C)C=Cc2ccc(O[C@@H]3O[C@H](CO)[C@@H](O)[C@H]3O)cc2O1 [STERIN A]
IC50 (Liver microsomes): 8 µg/mL (≈ 25.9 µM)
